Laboratory results published in the NIST ThermoML archive (doi:10.1016/j.jct.2015.06.010).
Numbers after ± are expanded uncertainties.

Conditions: 101.33 kPa, Liquid; for electrical conductivity: Alternating current cell with electrodes; for viscosity: Concentric cylinders viscometry; for mass density: Vibrating tube method

In the case of `Cn1cc[n+](CC#N)c1.O=S(=O)([N-]S(=O)(=O)C(F)(F)F)C(F)(F)F`, the electrical conductivity (283.15 K) is reported as 0.0283 ± 0.0006 S/m, the viscosity (283.15 K) is reported as 1140 ± 50 mPa·s and the mass density (283.15 K) is reported as 1625.9 ± 1.2 kg/m3. It also gave an electrical conductivity (288.15 K) of 0.0439 ± 0.001 S/m, a viscosity (288.15 K) of 708.6 ± 28 mPa·s and a mass density (288.15 K) of 1620.5 ± 1.2 kg/m3. For the same molecule, the electrical conductivity (293.15 K) was 0.0648 ± 0.0014 S/m, the viscosity (293.15 K) was 463.4 ± 16 mPa·s and the mass density (293.15 K) was 1615 ± 1.2 kg/m3. The electrical conductivity (298.15 K) was 0.0919 ± 0.0019 S/m, the viscosity (298.15 K) was 315.5 ± 10 mPa·s and the mass density (298.15 K) was 1609.7 ± 1.2 kg/m3. For the same molecule, the electrical conductivity (303.15 K) was 0.129 ± 0.0027 S/m, the viscosity (303.15 K) was 222.8 ± 6.4 mPa·s and the mass density (303.15 K) was 1604.6 ± 1.2 kg/m3. For the same molecule, the electrical conductivity (308.15 K) was 0.173 ± 0.0036 S/m, the viscosity (308.15 K) was 162.4 ± 4.2 mPa·s and the mass density (308.15 K) was 1599.6 ± 1.2 kg/m3. For the same molecule, the electrical conductivity (313.15 K) was 0.225 ± 0.005 S/m, the viscosity (313.15 K) was 121.7 ± 2.9 mPa·s and the mass density (313.15 K) was 1594.6 ± 1.2 kg/m3. It also gave an electrical conductivity (318.15 K) of 0.285 ± 0.006 S/m, a viscosity (318.15 K) of 93.56 ± 2.1 mPa·s and a mass density (318.15 K) of 1589.8 ± 1.2 kg/m3. It also gave an electrical conductivity (323.15 K) of 0.36 ± 0.007 S/m, a viscosity (323.15 K) of 73.61 ± 1.6 mPa·s and a mass density (323.15 K) of 1584.8 ± 1.2 kg/m3. For the same molecule, the electrical conductivity (328.15 K) was 0.441 ± 0.009 S/m, the viscosity (328.15 K) was 58.99 ± 1.2 mPa·s and the mass density (328.15 K) was 1579.9 ± 1.2 kg/m3. It also gave an electrical conductivity (333.15 K) of 0.536 ± 0.011 S/m, a viscosity (333.15 K) of 47.93 ± 1 mPa·s and a mass density (333.15 K) of 1575.1 ± 1.2 kg/m3. For the same molecule, the electrical conductivity (338.15 K) was 0.644 ± 0.013 S/m, the viscosity (338.15 K) was 39.7 ± 0.84 mPa·s and the mass density (338.15 K) was 1570.2 ± 1.2 kg/m3. It also gave an electrical conductivity (343.15 K) of 0.756 ± 0.015 S/m, a viscosity (343.15 K) of 33.27 ± 0.7 mPa·s and a mass density (343.15 K) of 1565.4 ± 1.2 kg/m3. It also gave an electrical conductivity (348.15 K) of 0.878 ± 0.018 S/m, a viscosity (348.15 K) of 28.11 ± 0.59 mPa·s and a mass density (348.15 K) of 1560.6 ± 1.2 kg/m3. The electrical conductivity (353.15 K) was 1.01 ± 0.02 S/m, the viscosity (353.15 K) was 24.06 ± 0.51 mPa·s and the mass density (353.15 K) was 1555.8 ± 1.2 kg/m3.
With `Cn1cc[n+](CCO)c1.O=S(=O)([N-]S(=O)(=O)C(F)(F)F)C(F)(F)F` the electrical conductivity (283.15 K) was 0.132 ± 0.0028 S/m, the viscosity (283.15 K) was 213.4 ± 6 mPa·s and the mass density (283.15 K) was 1588.6 ± 1.2 kg/m3. It also gave an electrical conductivity (288.15 K) of 0.179 ± 0.0037 S/m, a viscosity (288.15 K) of 153.7 ± 3.9 mPa·s and a mass density (288.15 K) of 1583.6 ± 1.2 kg/m3. The electrical conductivity (293.15 K) was 0.237 ± 0.005 S/m, the viscosity (293.15 K) was 114.1 ± 2.7 mPa·s and the mass density (293.15 K) was 1578.6 ± 1.2 kg/m3. It also gave an electrical conductivity (298.15 K) of 0.305 ± 0.006 S/m, a viscosity (298.15 K) of 86.89 ± 1.9 mPa·s and a mass density (298.15 K) of 1573.7 ± 1.2 kg/m3. For the same molecule, the electrical conductivity (303.15 K) was 0.387 ± 0.008 S/m, the viscosity (303.15 K) was 67.66 ± 1.5 mPa·s and the mass density (303.15 K) was 1568.8 ± 1.2 kg/m3. The electrical conductivity (308.15 K) was 0.481 ± 0.01 S/m, the viscosity (308.15 K) was 53.88 ± 1.1 mPa·s and the mass density (308.15 K) was 1563.9 ± 1.2 kg/m3. It also gave an electrical conductivity (313.15 K) of 0.589 ± 0.012 S/m, a viscosity (313.15 K) of 43.52 ± 0.92 mPa·s and a mass density (313.15 K) of 1559.1 ± 1.2 kg/m3. The electrical conductivity (318.15 K) was 0.704 ± 0.014 S/m, the viscosity (318.15 K) was 35.85 ± 0.76 mPa·s and the mass density (318.15 K) was 1554.2 ± 1.2 kg/m3. It also gave an electrical conductivity (323.15 K) of 0.83 ± 0.017 S/m, a viscosity (323.15 K) of 29.83 ± 0.63 mPa·s and a mass density (323.15 K) of 1549.4 ± 1.2 kg/m3. For the same molecule, the electrical conductivity (328.15 K) was 0.967 ± 0.02 S/m, the viscosity (328.15 K) was 25.2 ± 0.53 mPa·s and the mass density (328.15 K) was 1544.6 ± 1.2 kg/m3. It also gave an electrical conductivity (333.15 K) of 1.11 ± 0.022 S/m, a viscosity (333.15 K) of 21.52 ± 0.45 mPa·s and a mass density (333.15 K) of 1539.8 ± 1.2 kg/m3. The electrical conductivity (338.15 K) was 1.28 ± 0.026 S/m, the viscosity (338.15 K) was 18.46 ± 0.39 mPa·s and the mass density (338.15 K) was 1535 ± 1.2 kg/m3. For the same molecule, the electrical conductivity (343.15 K) was 1.45 ± 0.029 S/m, the viscosity (343.15 K) was 16.08 ± 0.34 mPa·s and the mass density (343.15 K) was 1530.2 ± 1.2 kg/m3. The electrical conductivity (348.15 K) was 1.63 ± 0.033 S/m, the viscosity (348.15 K) was 14.06 ± 0.3 mPa·s and the mass density (348.15 K) was 1525.5 ± 1.2 kg/m3. For the same molecule, the electrical conductivity (353.15 K) was 1.81 ± 0.037 S/m, the viscosity (353.15 K) was 12.44 ± 0.26 mPa·s and the mass density (353.15 K) was 1520.7 ± 1.2 kg/m3.
